Measured values published in patent US9636289B2, “Composition for preventing or treating hair loss or promoting hair growth comprising secoiridoid glucoside derivatives” (priority 2012, dated 2017).
“Also recorded” adds a separate entry of the source.

How the values were obtained:
[1] = system: hair follicles; assay: Histological analysis of the back skin (hair growth cycle, hair follicles); type: in vivo, mouse; settings: for Anagen ratio / anagen phases observed (number of cases): 4 animals per group
Excerpt: At 6 weeks after subcutaneous injection, mice were sacrificed. Their back skin tissue samples were isolated using scissors and forceps and fixed by formalin. After dehydration with serial alcohol and xylene, the tissues were paraffinized. Paraffinized tissues were sectioned using a microtomb in a thickness of 5 μm and used alcohol and xylene to remove paraffin. Then, the tissues were stained with hematoxyline/eosin, followed by observation of histological changes in hair follicles under an optical microscope. The hair growth cycles in the tissues were pathologically diagnosed by specialists, and quantity and diameter of hair follicle were measured under an optical microscope.

[2] = Measurement on changes in body weight; type: in vivo, mouse; settings: initial body weights and at 6 weeks; vs negative control group (Con)
Procedure: 12 of 6-week-old male C57BL/6N mice (Orientbio) were adapted to the environment for 2 weeks. Then, they were divided into total 3 groups, the negative control group (Con), the positive control group (MXD) and oleuropein group (Ole), and used for test. The environment for animals were maintained at 21±2.0° C. and relative humidity 50±5% under 12 hours light/dark cycle. They were fed a food (chow) and water with free access.
In order to verify an effect for promoting hair growth, 8-week-old mice in telogen were used for test. Hairs of their back were removed using a clipper for mouse. They were subcutaneously injected with 0.1 mL of sample at the part, everyday. Before subcutaneous injection, the test substance oleuropein (0.8 mg/0.1 mL) and the control drug minoxidil were dissolved in corn oil to use. The negative control group was subcutaneously injected with only vehicle (corn oil). The application was performed once, every P.M. 4:00 for 6 weeks. […] To assess level of hair growth, the hair length was measured using ruler.
Body weight was measured weekly during entire test period, from the point before the subcutaneous injection of the hair restorers to the end point of the subcutaneous injection of the hair restorers.

[3] = system: IGF1; assay: Immunohistochemical test on skin tissue, IGF1; type: in vivo, mouse; settings: 6 weeks s.c., FIG. 4
Procedure: (§1) In order to verify expression amounts of IGF1 and β-catenin related with hair growth in skin tissue, each primary antibody to IGF1 and β-catenin was diluted to 1:50, added to tissue sections, and incubated for 12 hours at room temperature. The primary antibody was diluted with the mixture of 0.1% normal goat serum (Vector Laboratories Inc.) and 0.3% Triton X-100 (Sigma) in 0.1 M phosphate buffer solution (PB). The tissue sections were washed twice at room temperature for 15 minutes in 0.1M PB. Then, secondary antibody [biotinylated anti-rabbit IgG (Vector Laboratories Inc.)] was diluted to 1:200, added to the tissue sections, and incubated for 1 hour at room temperature. The tissue sections were washed twice at room temperature for 15 minutes in 0.1M PB, soaked in peroxidase-labeled ABC solution, and incubated for 1 hour at room temperature. The tissue sections were washed twice at room temperature for 15 minutes in 0.1M PB. Then, the tissue sections were reacted for 5 min with a solution in which 30 mg of 3-3′ diaminobenzidine was dissolved in 150 ml of 0.1M PB, added with concentration of 0.005% of hydrogen peroxide, and reacted for 5 min to occur color reaction. The tissue sections were washed several times at room temperature in 0.1M PB. […]

[4] = system: HGF (hepatocyte growth factor); assay: RT-PCR gene expression in back skin tissue, HGF; type: in vivo, mouse; settings: 6 weeks s.c., compared to the negative control group, FIG. 5
Procedure: (§2) After adding 1 mL of Trizol agent to 50-100 mg of test animal skin tissues, the mixture was homogenized and centrifuged at 12,000×g for 10 min at 4° C. The supernatant was transferred to a new tube to remove fat layer. Then, 200 μl of chloroform was added to the tube, followed by vortexing. The same procedure was repeated twice and then the supernatant was transferred to a new tube, followed by addition of isopropanol and the supernatant at 1:1 ratio. The mixture was vigorously shaken 10 times and then incubated for 10 min at room temperature, followed by centrifugation at 12,000×g for 10 min at 4° C. to remove the supernatant. After adding 1 mL of 70% ethanol to the remaining pellet, it was centrifuged at 7,500×g for 5 min at 4° C. After removing the ethanol, the RNA pellet contained in the tube was dried for 5 min at 4° C. and dissolved in nuclease-free water. The RNA sample concentration was measured at a wavelength of 260 nm and 280 nm using a UV/VIS spectrophotometer (Beckman coulter, DU730) and the integrity of RNA sample was verified by agarose gel electrophoresis.
(§3) The RNA sample obtained was trasnscribed using oligo dT primer and SuperScript reverse transcriptase (GIBCO BRL, Gaithersburg, Md., USA) to synthesize cDNA. The PCR amplification was performed using the cDNA as templates and primers complementary to cDNA 5′ and 3′ flanking sequence. […]

[5] = system: C57BL/6N mice; assay: Hair re-growth in hair-removed telogen mice, subcutaneous injection for 6 weeks (visual observation, hair length); type: in vivo, mouse; settings: for hair growth state (visual): s.c. 0.8 mg/0.1 mL in corn oil daily
[6] = system: Wnt10b; assay: RT-PCR gene expression in back skin tissue, Wnt10b; type: in vivo, mouse; settings: 6 weeks s.c., compared to the negative control group
Procedure: as §2, §3

[7] = system: GSK3β (glycogen synthase kinase 3β); assay: RT-PCR gene expression in back skin tissue, GSK3β; type: in vivo, mouse; settings: 6 weeks s.c., compared to the negative control group
Procedure: as §2, §3

[8] = system: β-catenin; assay: Immunohistochemical test on skin tissue, β-catenin; type: in vivo, mouse; settings: 6 weeks s.c., FIG. 4
Procedure: as §1

[9] = system: KGF (keratocyte growth factor); assay: RT-PCR gene expression in back skin tissue, KGF; type: in vivo, mouse; settings: 6 weeks s.c., compared to the negative control group, FIG. 5
Procedure: as §2, §3

[10] = system: Axin; assay: RT-PCR gene expression in back skin tissue, Axin; type: in vivo, mouse; settings: 6 weeks s.c., compared to the negative control group
Procedure: as §2, §3

[11] = cited from earlier work
[12] = system: IGF1 (insulin-like growth factor 1); assay: RT-PCR gene expression in back skin tissue, IGF1; type: in vivo, mouse; settings: 6 weeks s.c., compared to the negative control group, FIG. 5
Procedure: as §2, §3

[13] = system: LRP5 (low-density lipoprotein receptor-related protein 5); assay: RT-PCR gene expression in back skin tissue, LRP5; type: in vivo, mouse; settings: 6 weeks s.c., compared to the negative control group
Procedure: as §2, §3

[14] = system: FZDR (frizzled receptor 1); assay: RT-PCR gene expression in back skin tissue, FZDR; type: in vivo, mouse; settings: 6 weeks s.c., compared to the negative control group
Procedure: as §2, §3

[15] = system: β-catenin; assay: RT-PCR gene expression in back skin tissue, β-catenin; type: in vivo, mouse; settings: 6 weeks s.c., compared to the negative control group
Procedure: as §2, §3

[16] = system: VEGF (vascular endothelial growth factor); assay: RT-PCR gene expression in back skin tissue, VEGF; type: in vivo, mouse; settings: 6 weeks s.c., compared to the negative control group, FIG. 5
Procedure: as §2, §3

Nc1cc(N2CCCCC2)nc(N)[n+]1[O-] [minoxidil, reference compound]
Anagen ratio ([1]; back skin at 6 weeks): 25% | anagen phases observed (number of cases) ([1]; back skin at 6 weeks): 1 case | body weight, difference between groups [2]: no significant differences

C/C=C1/[C@H](O[C@@H]2O[C@H](CO)[C@@H](O)[C@H](O)[C@H]2O)OC=C(C(=O)OC)[C@H]1CC(=O)OCCc1ccc(O)c(O)c1 [oleuropein]
hair follicle length / appearance ([1]; back skin at 6 weeks): became longer and they were expressed into skin | Histological diagnosis of hair growth cycle, individual animals (Animal ID 1-4) ([1]; back skin at 6 weeks after s.c. injection): Telogen; also recorded: Anagen | Anagen ratio ([1]; back skin at 6 weeks): 50% | anagen phases observed (number of cases) ([1]; back skin at 6 weeks): 2 case | diameter of the hair follicles ([1]; image analysis, compared to the negative control group): significantly increased | number of hair follicles ([1]; optical microscope 40× magnification, compared to the negative control group, FIG. 3): significantly increased | effect for increasing protein expression level of IGF1 compared with minoxidil [3]: more excellent effect | protein expression level of IGF1 ([3]; vs the negative group): much more highly detected | gene expression level of HGF [4]: significantly increased | effect for promoting hair growth (visual) compared with minoxidil ([5]; 6 weeks s.c. injection, FIG. 1): more excellent effect for promoting hair growth than that of the minoxidil | effect for stimulating hair growth (hair length) compared with minoxidil ([5]; 6 weeks s.c. injection, FIG. 2): excellent effect for stimulating hair growth than that of the minoxidil | hair length ([5]; at 3 weeks, p<0.05): significantly increased | hair growth state (visual) ([5]; at 3 weeks): hairs were grown | hair length, increase compared to the negative control group ([5]; at 6 weeks): 62% | hair growth state (visual) ([5]; at 6 weeks): hairs were vigorously grown | gene expression level of Wnt10b [6]: significantly increased | gene expression level of GSK3β [7]: significantly decreased | effect for increasing protein expression level of β-catenin compared with minoxidil [8]: more excellent effect | protein expression level of β-catenin ([8]; vs the negative group): much more highly detected | gene expression level of KGF [9]: significantly increased | gene expression level of Axin [10]: significantly decreased | toxicity ([11]; mouse treated with 1 g/kg (body weight) for 7 days): no toxicity | LD50 ([11]; through various experiments): may not be calculated | gene expression level of IGF1 [12]: significantly increased | gene expression level of LRP5 [13]: significantly increased | gene expression level of FZDR (frizzled receptor 1) [14]: significantly increased | gene expression level of β-catenin [15]: significantly increased | gene expression level of VEGF [16]: significantly increased
